Measured values from patent publication US12583872B2, “Photosensitizer compounds, methods of manufacture and application to plants” (NUTRIEN AG SOLUTIONS (CANADA) INC., priority 2019, dated 2026).

Legend:
[1] = system: Pseudomonas syringae pv tabacci; assay: Control of bacterial pathogen Pst on Arabidopsis thaliana; assay type: in vivo; conditions: 0.05% + surfactants (0.5% propylene glycol + 0.1% Pluronics F-127); host Arabidopsis thaliana; yellow leaves/plant
Protocol: Arabidopsis thaliana plants were grown under 12 hours:12 hours, light:dark photoperiod, under LED lights (PAR 24 μmol m^−2 s^−1), at a temperature of 25° C.±3° C. and 65% relative humidity. After 3 weeks, plants were sprayed with formulations (50% dilution in water), allowed to dry for 2 h, after which Pseudomonas syringae pv tabacci (at OD0.08 diluted in 10 mM MgCl2) was sprayed. Plants were kept under plastic domes until symptoms develop. Disease severity was rated by counting the number of yellow leaves/plant. Data are average of 3 replicas.

[2] = system: Colletotrichum orbiculare ATC20767 (Cgm); assay: Control of fungal pathogen Cgm on Nicotiana benthamiana; assay type: in vivo; conditions: 0.05% + Surfactants (0.5% propylene glycol + 0.1% Pluronics F-127) (Table 14); host Nicotiana benthamiana
Protocol: Control of the fungal plant pathogen Colletotrichum orbiculare ATC20767 (Cgm) on the host plant Nicotiana benthamiana following treatment with modified Chlorin e6 compounds was assessed. Treatments were applied to N. benthamiana plants approximately 2 h prior to inoculation with a spore suspension of Cgm. Plants were then exposed to light for a 24-hour period followed by dark incubation until disease symptoms were evident on the water treated control plants. Once disease symptoms were evident, lesions were counted and leaf area measured in order to determine the number of lesions/cm^2 leaf area. Four replicate plants were used per treatment and plants were randomized under the light source. Illumination was provided by LED lights emitting about 180 μmol/m^2/s photosynthetically active radiation (PAR).

[3] = system: Pseudomonas syringae pv. tabaci; assay: Relative inactivation of Pseudomonas syringae pv. tabaci in PBS (CFU count); assay type: cell-based; conditions: for Relative Inactivation (log[CFUcontrol mL^−1] − log[CFUtreatment mL^−1]): concentration not given; for Killing of bacteria: light treatment
Protocol: Experiments were conducted to evaluate control of the gram-negative bacterial plant pathogen Pseudomonas syringae pv. tabaci with modified Ce6. Treatments were prepared in Phosphate Buffered Saline (PBS) in 96 well plates at desired concentrations. A bacterial suspension was inoculated into the PBS and incubated at 28° C. in the dark for 30 min. After 30 min, the 96 well plate was placed under illumination for 1 hour (at 21° C.). A separate plate prepared at the same time was kept in the dark without illumination and served as dark control. Following illumination, bacterial suspensions were serially diluted and 10 μL of each dilution was spread uniformly on Tryptic Soy Agar (TSA) plates and placed in the dark in an incubator at 28° C. for 48 hours. After 48 hours, bacterial colonies were counted and results were log transformed (log colony forming units (CFU)/mL). The relative inactivation was determined by taking the difference between log CFU (PBS control) and log CFU (treatments). Sample Illumination was provided by LED lights (Heliospectra RX30) emitting about 1000 μmol/m^2/s photosynthetically active radiation (PAR). The modified Ce6 that were evaluated are the Ce6-mix-DMAE^15,17 amide, Ce6-bis-DMAE^15,17 amide and Ce6-mono-DMAE^15 amide.

[4] = system: dollar spot fungus (Sclerotinia homoeocarpa); assay: Dollar spot fungus broth protocol (PBS treatment, then radial growth on PDA); assay type: cell-based; conditions: Broth data; for inhibition at 100 µM: Clarireedia homoeocarpa
Protocol: Broth protocol: control of dollar spot fungus (Sclerotinia homoeocarpa) with modified chlorins was assessed. Treatments were prepared in Phosphate Buffered Saline (PBS) in 24 well plates (in duplicates for light vs. dark incubation) at desired concentrations. Then, a 5 mm diameter plug of a Sclerotinia homoeocarpa isolate (3 isolates total tested) was inoculated into the PBS and incubated at 21° C. in the dark for 2 hours. After 2 hours, one of the 24 well plates (with isolates in triplicate) was left in the dark and one 24 well plate was placed under illumination for 1 hour (all at 21° C.). Following illumination, fungal plugs were removed from PBS, blotted dry on sterile filter paper and transferred to non-amended Potato Dextrose Agar (PDA). Radial growth of the fungus was monitored daily until the growth of S. homoeocarpa reached the edge of the Petri-dish. Illumination was provided by LED lights emitting about 1000 μmol/m2/s photosynthetically active radiation (PAR).

[5] = system: Kentucky bluegrass (Poa pratensis); assay: Kentucky bluegrass tolerance to salt stress (turf quality); assay type: in vivo; conditions: 0.1%; 170 mM NaCl, 2 salt applications; scale 1-9 (1=dead, 9=healthy)
Protocol: Kentucky bluegrass (Poa pratensis) was grown under greenhouse conditions for ˜3 weeks. After 3 weeks, plants were sprayed with formulations and allowed to sit for 24 hours, after which the pots were placed in a 170 mM NaCl solution until the soil was saturated. The salt application was repeated again 7 days later for a total of 2 salt applications. Salinity stress was evaluated based on a turf quality scale of 1-9; where 1=dead, brown turf; 6=minimally acceptable turf quality (based on standards for golf courses or sports fields); and 9=dense, dark green turf (healthy). Data are average of 5 replicates.

[6] = system: dollar spot fungus (Sclerotinia homoeocarpa); assay: Dollar spot fungus agar plate assay (amended PDA, radial growth); assay type: cell-based; conditions: for inhibition at 10 µM: Clarireedia homoeocarpa
Protocol: Control of dollar spot fungus (Sclerotinia homoeocarpa) with Ce6-mix-DMAE^15,17 amide and Ce6Na3 (comparative) was assessed. Treatments were amended into Potato Dextrose Agar (PDA) at desired concentrations. Then, a 5 mm diameter plug of a Sclerotinia homoeocarpa isolate (3 isolates total tested) was inoculated into the center of the amended Petri-dish and incubated at 21° C. in the dark for 24 h. After 24 h, one set of Petri-dishes (in triplicate) was left in the dark (no light) and one set was placed under illumination (light) for the remainder of the experiment (all at 21° C.). Radial growth of the fungus was monitored daily until the growth of S. homoeocarpa on non-amended PDA reached the edge of the Petri-dish. Illumination was provided by fluorescent lights emitting about 180 μmol/m^2/s photosynthetically active radiation (PAR).
Agar protocol: control of dollar spot fungus (Sclerotinia homoeocarpa) with modified Ce6 was assessed. Treatments were amended into Potato Dextrose Agar (PDA) at desired concentrations. Then, a 5 mm diameter plug of a Sclerotinia homoeocarpa isolate (3 isolates total tested) was inoculated into the center of the amended Petri-dish and incubated at 21° C. in the dark for 24 hours. After 24 hours, one set of Petri-dishes (in triplicate) was left in the dark and one set was placed under illumination for the remainder of the experiment (all at 21° C.). Radial growth of the fungus was monitored daily until the growth of S. homoeocarpa on non-amended PDA reaches the edge of the Petri-dish. Illumination was provided by fluorescent lights emitting about 180 μmol/m2/s photosynthetically active radiation (PAR).

[7] = Light: 1 hour about 1000 μmol/m^2/s PAR after 30 min dark incubation, where no CFU were left, treatment set to 1 CFU/mL
[8] = Agar data, 10 uM, Dark (Table 5)
[9] = Agar data, 10 uM, Light (Table 5)

C=Cc1c(C)c2cc3nc(c(CC(=O)NCCN(C)C)c4[nH]c(cc5nc(cc1[nH]2)C(C)=C5CC)c(C)c4C(=O)O)[C@@H](CCC(=O)O)[C@@H]3C [Ce6-mono-DMAE^15 amide]
Disease inhibition, % [1]: 56%
Disease inhibition, % [2]: 94%
Relative Inactivation (log[CFUcontrol mL^−1] − log[CFUtreatment mL^−1]) ([3]; Dark control plate): 0.21 ± 0.33
Relative Inactivation (log[CFUcontrol mL^−1] − log[CFUtreatment mL^−1]) [3, 7]: 7.98 ± 0.65
Killing of bacteria [3]: killed all bacteria

C=Cc1c(C)c2cc3nc(c(CC(=O)NCCN(C)C)c4[nH]c(cc5nc(cc1[nH]2)C(C)=C5CC)c(C)c4C(=O)O)[C@@H](CCC(=O)NCCN(C)C)[C@@H]3C [Ce6-bis-DMAE^15,17 amide]
Relative Inactivation (log[CFUcontrol mL^−1] − log[CFUtreatment mL^−1]) ([3]; Dark control plate): 1.13 ± 0.42
Relative Inactivation (log[CFUcontrol mL^−1] − log[CFUtreatment mL^−1]) [3, 7]: 7.98 ± 0.65
Killing of bacteria [3]: killed all bacteria

C=Cc1c(C)c2cc3nc(c(CC(=O)[O-])c4[nH]c(cc5nc(cc1[nH]2)C(C)=C5CC)c(C)c4C(=O)[O-])[C@@H](CCC(=O)[O-])[C@@H]3C.[Na+].[Na+].[Na+] [Ce6Na3]
Inhibition ([4]; 10 uM, Dark): −4%
Inhibition ([4]; 10 uM, Light): 53%
Inhibition ([4]; 100 uM, Dark): 16%
Inhibition ([4]; 100 uM, Light): 66%
Turf Quality [5]: 6
Inhibition [6, 8]: 26%
Inhibition [6, 9]: 74%
Inhibition ([6]; Light, 5 μM, agar plate): 39%
Inhibition ([6]; Light, 10 μM, agar plate): 74%
Inhibition ([6]; Light, 31 μM, agar plate): 99%
Inhibition ([6]; No Light, 5 μM, agar plate): 13%
Inhibition ([6]; No Light, 10 μM, agar plate): 26%
Inhibition ([6]; No Light, 31 μM, agar plate): 44%
Relative Inactivation (log[CFUcontrol mL^−1] − log[CFUtreatment mL^−1]) ([3]; Dark control plate): −0.03 ± 0.13
Relative Inactivation (log[CFUcontrol mL^−1] − log[CFUtreatment mL^−1]) [3, 7]: 0.39 ± 0.29

C=Cc1c(C)c2cc3nc(c(CC(=O)NCCOP(=O)(O)O)c4[nH]c(cc5nc(cc1[nH]2)C(C)=C5CC)c(C)c4C(=O)O)[C@@H](CCC(=O)O)[C@@H]3C [Ce6-mono-EP OA^15]
inhibition at 100 µM ([4]; 100 uM, Dark): -5%
inhibition at 100 µM ([4]; 100 uM, Light): 71%

C=Cc1c(C)c2cc3nc(c(CC(=O)NCCNCCCC)c4[nH]c(cc5nc(cc1[nH]2)C(C)=C5CC)c(C)c4C(=O)O)[C@@H](CCC(=O)O)[C@@H]3C [Ce6-mono-BAE^15 amide]
inhibition at 10 µM [6, 8]: 49%
inhibition at 10 µM [6, 9]: 99%
